According to patent publication US20230174946A1, “ORGAN INFECTION MODELS” (priority 2020, published 2023):
Read-outs that look alike come from different tables or passages of the source.

Experiments:
SARS-CoV-2 [1] = format: cell-based; settings: for effect on viral N gene RNA / viral replication in proximal ALI cultures (in words): pre-treatment, 10 µM Hydroxychloroquine or Remdesivir, 100 units/ml IFNB1
SARS-CoV-2 [2] = format: cell-based; settings: 10 µM Hydroxychloroquine or Remdesivir, 100 units/ml IFNB1; for reduction in viral N gene RNA/expression compared to untreated infected organoids: human 3D alveolar organoids
SARS-CoV-2 [3] = format: cell-based; settings: 10 µM Hydroxychloroquine or Remdesivir, 100 units/ml IFNB1
coxsackievirus = settings: dose-dependent; previous study; cited from earlier work

Compound | effect on viral N gene RNA / viral replication in proximal ALI cultures (in words) (SARS-CoV-2 [1]) | effect on viral N gene RNA / viral replication in proximal ALI cultures (in words) (SARS-CoV-2 [1]; listed as hydroxychloroquine) | reduction in viral N gene RNA/expression compared to untreated infected organoids (SARS-CoV-2 [2]) | effect on viral replication in alveolar organoid cultures (in words) (SARS-CoV-2 [2]; pre-treatment) | reduction in viral N gene RNA/expression compared to untreated infected AT2 cultures (SARS-CoV-2 [3]) | effect on viral infection/replication in AT2 cultures (in words) (SARS-CoV-2 [3]; pre-treatment) | reduction in viral N gene RNA abundance (SARS-CoV-2 [1]) | effect on coxsackievirus proliferation in vitro (coxsackievirus)
CCN(CCO)CCCC(C)Nc1ccnc2cc(Cl)ccc12 (stereo not shown) [Hydroxychloroquine] | did not show a significant effect | did not have an effect on viral replication | 2.4 log | significantly reduced viral replication | 2.4 log | significantly reduced viral replication |  | 
CCC(CC)COC(=O)[C@H](C)N[P@](=O)(OC[C@H]1O[C@@](C#N)(c2ccc3c(N)ncnn23)[C@H](O)[C@@H]1O)Oc1ccccc1 [Remdesivir] |  |  | 9 log |  | 9 log |  | 10.2 log | 
NC(=O)c1ncn([C@@H]2O[C@H](CO)[C@@H](O)[C@H]2O)n1 [ribavirin] |  |  |  |  |  |  |  | significantly reduce coxsackievirus proliferation
